According to publication PMC11850127 (The Journal of Biological Chemistry, 2025):
pEC50, pIC50: −log10 of the molar value. Entries after “also recorded” stand apart in the source; their conditions may differ. Read-outs that look alike come from different tables or passages of the source.

Experiments:
[V13′T]α10 nAChRs [1] = target: T1, [V13′T]α10 nAChRs (Homo sapiens, UniProt Q9GZZ6, V280T); assay: cell-based; assay type: cell-based, human (expressed in Xenopus laevis oocytes)
(α4)2(β2)3 = conditions: cited from earlier work
[V13′T]α10 nAChR = assay type: cell-based, human (expressed in Xenopus laevis oocytes)
homomeric α9 nAChRs [2] = conditions: cited from earlier work
[3] = system: uninjected oocytes and oocytes injected with RIC-3 alone; assay type: cell-based, Xenopus laevis
homomeric α9 nAChRs [4] = conditions: cited from earlier work; remark: listed apart in the source
(α4)3(β2)2 = conditions: cited from earlier work
human α10 nAChR = assay type: cell-based, human (expressed in Xenopus laevis oocytes)
[V13′T]α10 nAChRs [5] = target: T1, [V13′T]α10 nAChRs; assay type: cell-based, human (expressed in Xenopus laevis oocytes)
homomeric α10 nAChRs = conditions: cited from earlier work
α9α10 nAChRs = conditions: cited from earlier work
α9 homomers = conditions: cited from earlier work
homomeric α7 nAChRs = conditions: cited from earlier work
human α10 nAChRs = assay type: cell-based, human (expressed in Xenopus laevis oocytes)
muscle type nAChRs = conditions: cited from earlier work

T1 sequence (Q9GZZ6 25-450 V280T limits assumed): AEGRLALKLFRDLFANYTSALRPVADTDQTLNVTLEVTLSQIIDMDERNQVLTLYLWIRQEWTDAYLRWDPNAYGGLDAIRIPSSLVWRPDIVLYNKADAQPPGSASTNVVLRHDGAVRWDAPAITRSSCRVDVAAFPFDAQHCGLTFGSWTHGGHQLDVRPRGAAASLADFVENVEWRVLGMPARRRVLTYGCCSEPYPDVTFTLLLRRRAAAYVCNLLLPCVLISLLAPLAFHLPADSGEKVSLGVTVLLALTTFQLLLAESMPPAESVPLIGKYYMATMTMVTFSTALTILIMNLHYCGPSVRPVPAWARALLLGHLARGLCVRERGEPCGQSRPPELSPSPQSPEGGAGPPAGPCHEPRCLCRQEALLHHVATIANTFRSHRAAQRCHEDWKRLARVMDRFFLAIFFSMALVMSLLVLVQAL

## CC(=O)OCC[N+](C)(C)C [ACh, Acetylcholine]
[V13′T]α10 nAChRs [1]
  ACh-induced currents versus those induced by choline or nicotine: significantly larger
  Hill slope: 0.82 (0.67–1.01)
(α4)2(β2)3
  affinity for acetylcholine: high
[V13′T]α10 nAChR
  effect of absence of Ca^2+ on ACh-evoked currents: did not substantially reduce ACh-evoked currents
  mean ACh-induced response without actinomycin D: −208 ± 227 nA
[V13′T]α10 nAChR; n = 12
  range of ACh-induced response: −117 to −1120 nA
Homomeric α9 nAChRs [2]
  ACh-induced currents: small currents
[3]; n = 10
  ACh-induced current in uninjected oocytes: did not produce currents; also recorded: No ACh-induced currents were observed
[3]; n = 20
  ACh-induced current in oocytes injected with RIC-3 alone: did not produce currents; also recorded: No ACh-induced currents were observed
Homomeric α9 nAChRs [4]
  ACh-induced currents: small currents
(α4)3(β2)2
  affinity for acetylcholine: low
Human α10 nAChR
  ACh-induced current, average amplitude: 17 nA
  mean ACh-induced response: −7 ± 6 nA
  response to ACh, α10 + RIC-3 versus α10 only: significantly greater than those observed in α10-only injected oocytes; also recorded: significantly larger responses
Human α10 nAChR; n = 12
  range of ACh-induced response: −2 to −24 nA

## CN1[C@@H]2CC[C@H]1C[C@@H](OC(=O)C(CO)c1ccccc1)C2 (stereo partly drawn) [atropine]
[V13′T]α10 nAChRs [5]
  ACh-evoked response, percent of baseline: 230 ± 44%
  enhancement of ACh-evoked response: 230 ± 44%
  onset and reversal of potentiation: rapid onset and reversal
  potentiation of ACh-evoked currents (in words): rapid, significant potentiation

## COc1cc2c(cc1OC)[C@@]13CCN4CC5=CCO[C@H]6CC(=O)N2[C@H]1[C@H]6[C@H]5C[C@H]43 [brucine]
Homomeric α10 nAChRs
  enabling of function/expression of homomeric α10 nAChRs: can enable the function of homomeric α10 mammalian nAChRs

## C[N+](C)(C)CCO [choline]
[V13′T]α10 nAChRs [1]
  pEC50: 3.70
  Hill slope: 0.49 (0.41–0.60)
  agonist class: partial agonists
  efficacy of choline relative to nicotine: more efficacious than nicotine
  efficacy relative to ACh: lower efficacy than ACh

## CCN1C[C@]2(COC(=O)c3ccccc3N3C(=O)C[C@H](C)C3=O)CC[C@H](OC)[C@@]34[C@@H]5C[C@H]6[C@H](OC)[C@@H]5[C@](O)(C[C@@H]6OC)[C@@](O)([C@@H](OC)[C@H]23)[C@@H]14 [methyllycaconitine]
Homomeric α10 nAChRs
  enabling of function/expression of homomeric α10 nAChRs: can enable the function of homomeric α10 mammalian nAChRs

## CN1CCC[C@H]1c1cccnc1 [nicotine]
[V13′T]α10 nAChRs [1]
  pEC50: 3.46
  Hill slope: 0.59 (0.49–0.69)
  agonist class: partial agonist
  efficacy relative to ACh: lower efficacy than ACh
α9α10 nAChRs
  action of nicotine on wild-type α9α10 nAChRs: antagonist

## O=C1C[C@@H]2OCC=C3CN4CC[C@]56c7ccccc7N1[C@H]5[C@H]2[C@H]3C[C@H]46 [strychnine]
α9 homomers
  block of homomeric α9 nAChRs by strychnine: blocks
[V13′T]α10 nAChRs [5]
  ACh-evoked response, percent of baseline: 572 ± 131%
  effect of strychnine at low concentrations: enhanced [V13′T]α10 responses to ACh
  effect of strychnine at the highest concentration: inhibitory effect; also recorded: almost entirely inhibited
  effect of strychnine on [V13′T]α10 + RIC-3 responses: further enhanced
  enhancement of ACh-evoked response: 572 ± 131%
  maximum enhancement of ACh responses: greater than 5 fold
  potentiation of ACh-evoked currents (in words): rapid, significant potentiation
  strychnine concentration of maximum potentiation: 1 µM
Homomeric α10 nAChRs
  enabling of function/expression of homomeric α10 nAChRs: enable the expression of human α10 nAChRs; also recorded: enable functional expression of wild-type α10 homomers in oocytes; also recorded: can enable the function of homomeric α10 mammalian nAChRs
Homomeric α7 nAChRs
  block of homomeric α7 nAChRs by strychnine: blocks
α9α10 nAChRs
  block of α9α10 nAChRs by strychnine: blocks
Human α10 nAChRs
  effect of strychnine on α10 nAChR function, higher concentrations: block α10 nAChR function
  effect of strychnine on α10 plus RIC-3 oocytes, lower concentrations: further substantial increase in expression

## dihydro-β-erythroidine
[V13′T]α10 nAChRs [5]; 3 μM, 10 min, n = 5
  effect on ACh-evoked response: no significant activity; also recorded: not significantly altered

## α-bungarotoxin
α9 homomers
  sensitivity of α9 to α-bungarotoxin: sensitive
[V13′T]α10 nAChRs [5]
  Hill slope: −1.17
  pIC50: 6.48
Homomeric α7 nAChRs
  block of α7 homomers by α-bungarotoxin: blocks
Muscle type nAChRs
  block of muscle type nAChRs by α-bungarotoxin: blocks
α9α10 nAChRs
  block of α9α10 nAChRs by α-bungarotoxin: sensitive; also recorded: blocks
Human α10 nAChRs
  antagonist sensitivity of α10 homomers: blocked; also recorded: sensitive
  block of ACh-evoked current: completely blocked; also recorded: sensitive; also recorded: inhibited
